Test results reported in the C3SDB collision cross section collection.
Blank lines part the entries; values can stand above or below the compound they belong to.

Tests used:
[1] = instrument: DT, single field, calibrated with Agilent tune mix (Agilent)
[2] = instrument: DT, stepped-field

- collision cross section (N2) ([1]; [M+H]+): 278.5 Å²
Compound: CCCCCCCCCCCCCCC[C@@H](O)[C@H](COP(=O)([O-])OCC[N+](C)(C)C)NC(=O)CCCCCCCCCCCCC [SM(32:0)]

- collision cross section (N2) ([1]; [M-H]-): 295 Å²
Compound: CCCCC/C=C\C/C=C\C/C=C\C/C=C\CCCCCC(=O)O[C@H](COC(=O)CCCCCCCCCCCCCCCC)COP(=O)(O)O[C@H]1C(O)C(O)C(O)[C@@H](O)C1O (stereo partly drawn) [PI(39:4)]

- collision cross section (N2) ([1]; [M+H]+): 256.3 Å²
Compound: CCCCCCCCCCCCC=CC[C@@H](O)[C@H](CO)NC(=O)CCCCCCCCCCCCCCCC [Cer(35:1)]

- collision cross section (N2) ([1]; [M-H]-): 296.5 Å²
Compound: CCCCC/C=C\C/C=C\C/C=C\CCCCCCC(=O)O[C@H](COC(=O)CCCCCCCCCCCCCCCCCC)COP(=O)(O)O[C@H]1C(O)C(O)C(O)[C@@H](O)C1O (stereo partly drawn) [PI(39:3)]

- collision cross section (N2) ([1]; [M-H]-): 279.2 Å²
Compound: CCCCC/C=C\C/C=C\CCCCCCCC(=O)O[C@H](COC(=O)CCCCCCCCC/C=C\CCCCCCCC)COP(=O)(O)OC[C@@H](O)CO [PG(38:3)]

- collision cross section (N2) ([1]; [M+H]+): 269 Å²
Compound: CCCCCCCCCCCCC=CC[C@@H](O)[C@H](CO)NC(=O)CCCCCCCCCCCCCCCCCCCC [Cer(39:1)]

- collision cross section (N2) ([1]; [M+NH4]+): 322.1 Å²
Compound: CCCCC/C=C\C/C=C\C/C=C\C/C=C\CCCCCC(=O)OC[C@@H](COC(=O)CCCCCCCCCCCC)OC(=O)CCCCCCC/C=C\CCCCCCCCC [TG(54:5)]

- collision cross section (N2) ([1]; [M+HCOO]-): 274.4 Å²
- collision cross section (N2) ([1]; [M+Na]+): 278.8 Å²
- collision cross section (N2) ([1]; [M-H]-): 266.1 Å²
Compound: CCCCCCCCCCCCC=CC[C@@H](O)[C@H](CO)NC(=O)CC=CCCCCCCCCCCCCCCCCCCCC [Cer(42:2)]

- collision cross section (N2) ([1]; [M+H]+): 307.2 Å²
- collision cross section (N2) ([1]; [M+Na]+): 308.7 Å²
Compound: CCCCCCCCCCCCC=CC[C@@H](O)[C@H](CO[C@@H]1O[C@H](CO)[C@@H](O)C(O)C1O)NC(=O)CCCCCCCCCCCCCCCCCCCCCCCCC (stereo partly drawn) [GlcCer(44:1)]

- collision cross section (N2) ([1]; [M+H]+): 275.6 Å²
- collision cross section (N2) ([1]; [M+Na]+): 281.6 Å²
Compound: CCCCCCCCCCCCC=CC[C@@H](O)[C@H](CO)NC(=O)CCCCCCCCCCCCCCCCCCCCCC [Cer(41:1)]

- collision cross section (N2) ([1]; [M+HCOO]-): 269.4 Å²
- collision cross section (N2) ([1]; [M+H]+): 272.3 Å²
Compound: CCCCCCCCCCCCC=CC[C@@H](O)[C@H](CO)NC(=O)CCCCCCCCCCCCCCCCCCCCC [Cer(40:1)]

- collision cross section (N2) ([1]; [M+H]+): 283.3 Å²
Compound: CCCCCC/C=C\CCCCCCCC/C=C\OC[C@H](COP(=O)([O-])OCC[N+](C)(C)C)OC(=O)CCCCCCC/C=C\CCCCCC [PC(p34:2)]

- collision cross section (N2) ([1]; [M+NH4]+): 333.6 Å²
Compound: CCCCCCCCCC/C=C\CCCCCCCCCC(=O)OC[C@@H](COC(=O)CCCCCCCCCCC)OC(=O)CCCCCCCCCCCCCCCCCCCCC [TG(56:1)]

- collision cross section (N2) ([1]; [M+NH4]+): 325 Å²
Compound: CCCCC/C=C\CCCCCCCC(=O)OC[C@H](COC(=O)CCCCCCCCCCCCCCCCCC)OC(=O)CCCCCCCCCCCCCCCCCC [TG(53:1)]

- collision cross section (N2) ([1]; [M+NH4]+): 346.8 Å²
Compound: CCCCCCCC/C=C\CCCCCCCC(=O)OC[C@H](COC(=O)CCCCCCCCC/C=C\CCCCCCCCCC)OC(=O)CCCCCCCCC/C=C\CCCCCCCCCC [TG(62:3)]

- collision cross section (N2) ([1]; [M+H]+): 279.3 Å²
- collision cross section (N2) ([1]; [M-H]-): 267.7 Å²
Compound: CCCCCCCCCCCCC=CC[C@@H](O)[C@H](CO)NC(=O)CCCCCCCCCCCCCCCCCCCCCCC [Cer(42:1)]

- collision cross section (N2) ([1]; [M+H]+): 228.4 Å²
Compound: CCCCCC/C=C\CCCCCCCCC(=O)OC[C@@H](O)COP(=O)([O-])OCC[N+](C)(C)C [LPC(17:1)]

- collision cross section (N2) ([1]; [M+NH4]+): 334.1 Å²
Compound: CC/C=C\C/C=C\C/C=C\C/C=C\C/C=C\CCCCCC(=O)OC[C@@H](COC(=O)CCCCCCC/C=C\C/C=C\CCCCC)OC(=O)CCCCCC/C=C\C/C=C\C/C=C\CCCCC [TG(60:10)]

- collision cross section (N2) ([1]; [M+HCOO]-): 263.4 Å²
- collision cross section (N2) ([1]; [M+H]+): 267.3 Å²
- collision cross section (N2) ([1]; [M+Na]+): 273.1 Å²
Compound: CCCCCCCCCCCCC=CC[C@@H](O)[C@H](CO)NC(=O)CCCCCCCCCCCCCCCCCCC [Cer(38:1)]

Compound: CCCCCCCCCCCCCCCCCC(=O)OC[C@@H](O)COP(=O)(O)OC[C@H](N)C(=O)O [LPS(18:0)]
- collision cross section (N2) ([1]; [M+H]+): 228.3 Å²
- collision cross section (N2) ([1]; [M+Na]+): 232.1 Å²

- collision cross section (N2) ([1]; [M+NH4]+): 332.7 Å²
Compound: CC/C=C\C/C=C\C/C=C\C/C=C\C/C=C\CCCCCC(=O)OC[C@@H](COC(=O)CCCC/C=C\C/C=C\C/C=C\C/C=C\CC)OC(=O)CCCCC/C=C\C/C=C\C/C=C\C/C=C\C/C=C\CC [TG(62:14)]

- collision cross section (N2) ([2]; [M+H]+): 306.44 Å²
- collision cross section (N2) ([2]; [M+Na]+): 307.93 Å²
Compound: CCCCCCCCCCCCC=CC[C@@H](O)[C@H](CO[C@@H]1O[C@H](CO)[C@@H](O)C(O)C1O)NC(=O)CCCCCCCCCCCCCCCCCCCCCCCCC (stereo partly drawn) [GlcCer(44:01)]

- collision cross section (N2) ([1]; [M+NH4]+): 343.6 Å²
Compound: CCCCC/C=C\C/C=C\C/C=C\C/C=C\CCCCCC(=O)OC[C@@H](COC(=O)CCCCCCC/C=C\CCCCCCCC)OC(=O)CCCCCCCCCCC/C=C\C/C=C\CCCCC [TG(62:7)]

- collision cross section (N2) ([2]; [M+H]+): 309.76 Å²
- collision cross section (N2) ([2]; [M+Na]+): 307.86 Å²
Compound: CCCCCCCCCCCCC=CC[C@@H](O)[C@H](COP(=O)([O-])OCC[N+](C)(C)C)NC(=O)CCCCCCCCCCCCCCCCCCCCCCCCC [SM(44:01)]

- collision cross section (N2) ([2]; [M+H-2H2O]+): 307.66 Å²
Compound: CCCCCCCCCCCCC=CC[C@@H](O)[C@H](CO[C@@H]1O[C@H](CO)[C@@H](O)C(O)C1O)NC(=O)CC=CCC=CCCCCCCCCCCCCCCCCCCCCCC (stereo partly drawn) [GlcCer(47:03)]

- collision cross section (N2) ([2]; [M+2Na-H]+): 286.46 Å²
- collision cross section (N2) ([2]; [M-H]-): 277.01 Å²
Compound: CCCCC/C=C\C/C=C\CCCCCCCCCC(=O)O[C@H](COC(=O)CCCCCCC/C=C\CCCCCCCC)COP(=O)(O)OCCN [PE(38:03)]

- collision cross section (N2) ([1]; [M+H]+): 255.4 Å²
Compound: CCCCCCCCCCCCC=CC[C@@H](O)[C@H](CO)NC(=O)CC=CCCCCCCCCCCCCCC [Cer(36:2)]

- collision cross section (N2) ([2]; [M+H-H2O]+): 272.16 Å²
Compound: CCCCCCCCCCCCC=CC[C@@H](O)[C@H](CO)NC(=O)CCCCCCCCCCCCCCCCCCCCCC [Cer(41:01)]

- collision cross section (N2) ([2]; [M+2Na-H]+): 286.07 Å²
Compound: CCCCC/C=C\C/C=C\C/C=C\C/C=C\CCCCCC(=O)O[C@H](COC(=O)CCCC/C=C\C/C=C\C/C=C\CCCCC)COP(=O)(O)OCCN [PE(40:07)]

- collision cross section (N2) ([1]; [M+H]+): 258.6 Å²
Compound: CCCCCCCCCCCCCCCCC(=O)N[C@@H](CO)[C@H](O)CCCCCCCCCCCCCCC [Cer(35:0)]

- collision cross section (N2) ([2]; [M+Cl]-): 298.88 Å²
- collision cross section (N2) ([2]; [M+H-H2O]+): 298.36 Å²
- collision cross section (N2) ([2]; [M+HCOO]-): 302.85 Å²
- collision cross section (N2) ([2]; [M+H]+): 300.59 Å²
- collision cross section (N2) ([2]; [M+Na]+): 301.76 Å²
Compound: CCCCCCCCCCCCC=CC[C@@H](O)[C@H](CO[C@@H]1O[C@H](CO)[C@@H](O)C(O)C1O)NC(=O)CCCCCCCCCCCCCCCCCCCCCCC (stereo partly drawn) [GlcCer(42:01)]

- collision cross section (N2) ([2]; [M+2Na-H]+): 287.42 Å²
- collision cross section (N2) ([2]; [M+Na]+): 283.24 Å²
Compound: CCCCC/C=C\C/C=C\C/C=C\CCCCC(=O)O[C@H](COCCCCCCCCCCCCCCCCCCCC)COP(=O)(O)OCCN [PE(o38:03)]

- collision cross section (N2) ([1]; [M+H]+): 305.1 Å²
- collision cross section (N2) ([1]; [M+NH4]+): 306 Å²
- collision cross section (N2) ([1]; [M+Na]+): 303.2 Å²
- collision cross section (N2) ([1]; [M-H]-): 295.2 Å²
Compound: CCCCCC/C=C\CCCCCCCC(=O)OC[C@H](COP(=O)(O)O[C@H]1C(O)C(O)C(O)[C@@H](O)C1O)OC(=O)CCCCCCCCC/C=C\CCCCCCCCCC (stereo partly drawn) [PI(38:2)]
